Reference: patent publication US10975083B2, “Blood-brain barrier-penetrant dopamine-β-hydroxylase inhibitors” (BIAL—PORTELA & Cᵃ, S.A., priority 2016, dated 2021)
Marks after values point to notes of the source that are not given here.

Target: T1, Dopamine beta hydroxylase (Homo sapiens, UniProt P09172)
T1 construct: Human plasma samples were obtained from healthy donors; tissue Instituto Portugues do Sangue Transplantacao, Porto; host or cells: human plasma from healthy donors
T1 sequence (P09172 40-617 limits assumed): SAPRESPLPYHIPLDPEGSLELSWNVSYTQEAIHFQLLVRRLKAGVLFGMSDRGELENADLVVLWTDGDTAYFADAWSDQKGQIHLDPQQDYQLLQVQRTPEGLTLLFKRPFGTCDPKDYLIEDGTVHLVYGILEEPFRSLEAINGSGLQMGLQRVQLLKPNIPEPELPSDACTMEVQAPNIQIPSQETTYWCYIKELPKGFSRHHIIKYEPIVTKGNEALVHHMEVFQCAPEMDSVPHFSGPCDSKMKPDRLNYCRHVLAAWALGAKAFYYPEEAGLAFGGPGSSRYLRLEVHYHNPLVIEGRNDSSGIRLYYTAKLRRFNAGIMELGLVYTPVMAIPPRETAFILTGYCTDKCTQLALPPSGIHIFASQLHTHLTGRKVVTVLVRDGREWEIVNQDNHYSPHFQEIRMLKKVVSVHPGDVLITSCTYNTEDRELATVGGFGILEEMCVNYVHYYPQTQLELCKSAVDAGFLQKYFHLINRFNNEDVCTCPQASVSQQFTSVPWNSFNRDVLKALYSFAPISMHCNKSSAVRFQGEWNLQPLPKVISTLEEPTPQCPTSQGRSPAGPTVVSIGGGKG
Assay: DβH activity in human plasma
Assay type: biochemical
Conditions: inhibitor 0.1 μM
Method: Furthermore, the ability of a compound to inhibit DβH activity may be assessed in human plasma using the following assay. […]. Dopamine beta hydroxylase activity in human plasma was measured by the method previously developed (Nagatsu, T. and Udenfriend, S. Photometric assay of dopamine-β-hydroxylase activity in human blood. Clin. Chem. 18(9) 980-983, 1972) with minor modifications. Catalase, N-ethylmaleimide, tyramine, disodium fumarate, pargyline, sodium acetate, ascorbic acid, copper sulfate and octopamine were obtained from Sigma Chemical Co., St. Louis, Mo. 63178. Human plasma samples were obtained from healthy donors (Instituto Portugues do Sangue Transplantacao, Centro Sangue Transplantacao, Porto, Portugal). From date of collection, plasma was stored at −80° C. until use. Test compounds were initially prepared in dimethyl sulfoxide at a concentration of 10 mM and diluted in dimethyl sulfoxide to the required concentrations. […] Absorbance was measured at […] in a 96-well plate by use of a SpectraMAX plus 384 (Molecular Devices) with software SOFTmax® PRO Software 5.3 spectrophotometer. Absorbance was linear with octopamine concentration from 0.5 to 20 μg/ml. Dopamine beta hydroxylase activity is determined as nmol of octopamine formed/ml of plasma/hour and effect of compounds is presented as % control. […]

Cc1[nH]c(=S)n2c1[C@@H]1C[C@]1(c1cc(Br)ccc1F)C2 [Example 122, (5aS,6aR)-5a-(5-bromo-2-fluorophenyl)-1-methyl-5,5a,6,6a-tetrahydrocyclopropa[3,4]pyrrolo[1,2-c]imidazole-3 (2H)-thione]
DβH activity in % of control in human plasma assay (numbers in brackets): (9.8)* % of Ctrl
